# In US20060069132A1, “Azolecarboxamide herbicides” (priority 2004, published 2006):
# Columns and labels:
# ducksalad [1] = assay: Test C flooded paddy test; type: in vivo, Heteranthera limosa
# rice [2] = assay: Test B flooded paddy test; type: in vivo, Oryza sativa; settings: 1000 g ai/ha, scale 0 to 100 (0 no effect, 100 complete control)
# Method in brief: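 Plants grow to 1- to 4-leaf stage (2–18 cm) for postemergence spraying, or to 2-leaf stage for the paddy test. Formulated compound is applied. Greenhouse holding lasts 13–15 days. Response is scored visually relative to controls, 0 no effect to 100 complete control; a dash means no result.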
# lambsquarters = assay: Test B pre-/postemergence herbicide test; type: in vivo, Chenopodium album; settings: for Lambsquarters plant response rating: postemergence
# Method in brief: (§1)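 Pre: seeds sown, then sprayed. Post: 1–4-leaf plants (2–18 cm) sprayed at the same time. Paddy: flooded, treated at 2-leaf stage. Formulation: non-phytotoxic solvent with surfactant. Greenhouse 13–15 days; visual 0–100 score relative to controls.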
# barnyardgrass [3] = assay: Test B pre-/postemergence herbicide test; type: in vivo, Echinochloa crus-galli; settings: for Barnyardgrass plant response rating: postemergence
# Method in brief: (§2)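 Plants compared with untreated controls 13–15 days post-treatment and given a visual 0–100 injury score. Applications: preemergence to seeds; postemergence at 1- to 4-leaf (2–18 cm); paddy species flooded, 2-leaf stage. Vehicle non-phytotoxic, surfactant included.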
# blackgrass = assay: Test B postemergence herbicide test; type: in vivo, Alopecurus myosuroides; settings: postemergence
# Method in brief: (§3)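 Formulated test chemicals went onto postemergence plants measuring 2 to 18 cm, at one to four leaves. For the paddy assay, species had reached two leaves. Scoring took place 13–15 days later by eye, relative to untreated plants, using 0 for no effect up to 100 for full control.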
# giant foxtail = assay: Test B pre-/postemergence herbicide test; type: in vivo, Setaria faberi; settings: for Foxtail, Giant plant response rating: postemergence
# Method in brief: as §1
# rice [4] = assay: Test B pre-/postemergence herbicide test; type: in vivo, Oryza sativa; settings: preemergence
# Method in brief: as §1
# barnyardgrass [5] = assay: Test C flooded paddy test; type: in vivo, Echinochloa crus-galli
# Method in brief: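 After a postemergence application at 1 to 4 leaves (plants 2–18 cm high), or at 2 leaves for barnyardgrass in flooded paddy, plants stayed in the greenhouse for 12 to 14 days. Damage was then judged visually relative to control plants, with 100 indicating complete control.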
# morningglory = assay: Test B pre-/postemergence herbicide test; type: in vivo, Ipomoea coccinea; settings: for Morningglory plant response rating: postemergence
# Method in brief: as §2
# [6] = system: smallflower umbrella sedge; assay: Test C flooded paddy test; type: in vivo, Cyperus difformis
# Surinam grass = assay: Test B pre-/postemergence herbicide test; type: in vivo, Urochloa decumbens; settings: for Surinam Grass plant response rating: postemergence
# Method in brief: as §1
# pigweed = assay: Test B pre-/postemergence herbicide test; type: in vivo, Amaranthus retroflexus; settings: for Pigweed plant response rating: postemergence
# Method in brief: as §1
# cocklebur = assay: Test B pre-/postemergence herbicide test; type: in vivo, Xanthium strumarium; settings: for Cocklebur plant response rating: postemergence
# Method in brief: as §2
# wild oat = assay: Test B postemergence herbicide test; type: in vivo, Avena fatua; settings: postemergence
# Method in brief: (§4)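 Treated at 2-leaf (paddy) or 1–4-leaf, 2–18 cm (postemergence); greenhouse 13–15 d; visual score vs control, 0 none to 100 complete control; dash = not tested.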
# rice [7] = assay: Test C flooded paddy test; type: in vivo, Oryza sativa
# Method in brief: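 Injury scored visually against controls on a 0 (no effect) to 100 (complete control) scale, 12 to 14 days after treatment in greenhouse. Flooded paddy plants treated at 2-leaf stage; postemergence plants at 1- to 4-leaf stage, 2 to 18 cm tall.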
# corn = assay: Test B pre-/postemergence herbicide test; type: in vivo, Zea mays; settings: for Corn plant response rating: postemergence
# Method in brief: as §1
# wheat = assay: Test B postemergence herbicide test; type: in vivo, Triticum aestivum; design: key to Wheat plant response rating: 0 = no effect, 100 = complete control; settings: postemergence
# Method in brief: as §4
# barnyardgrass [8] = assay: Test B flooded paddy test; type: in vivo, Echinochloa crus-galli; settings: 1000 g ai/ha, scale 0 to 100 (0 no effect, 100 complete control)
# Method in brief: as §3
# [9] = system: small flower umbrella sedge; assay: Test B flooded paddy test; type: in vivo, Cyperus difformis; settings: 1000 g ai/ha, scale 0 to 100 (0 no effect, 100 complete control)
# Method in brief: as §3
# ducksalad [10] = assay: Test B flooded paddy test; type: in vivo, Heteranthera limosa; settings: 1000 g ai/ha, scale 0 to 100 (0 no effect, 100 complete control)
# Method in brief: as §3
# velvetleaf = assay: Test B pre-/postemergence herbicide test; type: in vivo, Abutilon theophrasti; settings: for Velvetleaf plant response rating: postemergence
# Method in brief: as §1
# large crabgrass = assay: Test B pre-/postemergence herbicide test; type: in vivo, Digitaria sanguinalis; settings: for Crabgrass, Large plant response rating: postemergence
# Method in brief: as §1
# [11] = 125 g ai/ha, scale 0 to 100 (0 no effect, 100 complete control)
# [12] = 250 g ai/ha, scale of 0 to 100, 0 is no effect, 100 is complete control
# [13] = 500 g ai/ha, visual rating after 12 to 14 days, scale 0 to 100 (0 no effect, 100 complete control)
# [14] = 125 g ai/ha, visual rating, scale 0 (no effect) to 100 (complete control)
# [15] = 500 g ai/ha, visual rating, 0 = no effect, 100 = complete control, preemergence
# [16] = 500 g ai/ha, scale 0 to 100, 0 is no effect, 100 is complete control
# [17] = 125 g ai/ha, 0 is no effect, 100 is complete control, preemergence
compound,measurement,setting,value
CCN1N=C(C(C)(C)C)CC1C(=O)Nc1cc(C(=O)N2CCCCC2)ccc1F (racemic) [Compound 331],Ducksalad plant response rating,"ducksalad [1]; 62 g ai/ha, scale 0 to 100",0
same,Ducksalad plant response rating,ducksalad [1]; [11],50
same,Ducksalad plant response rating,ducksalad [1]; [12],65
same,"Plant response rating, Ducksalad",ducksalad [1]; [13],85
same,Rice plant response rating,rice [2],60
same,Lambsquarters plant response rating,lambsquarters; [14],60
same,"Plant response rating, Lambsquarters",lambsquarters; [15],100
same,Lambsquarters plant response rating,lambsquarters; [16],70
same,"Plant response rating (0 to 100 scale), Barnyardgrass",barnyardgrass [3]; [17],60
same,Barnyardgrass plant response rating,barnyardgrass [3]; [14],10
same,"Plant response rating, Barnyardgrass",barnyardgrass [3]; [15],70
same,Barnyardgrass plant response rating,barnyardgrass [3]; [16],20
same,Blackgrass plant response rating,blackgrass; [14],10
same,Blackgrass plant response rating,blackgrass; [16],20
same,"Plant response rating (0 to 100 scale), Foxtail, Giant",giant foxtail; [17],20
same,"Foxtail, Giant plant response rating",giant foxtail; [14],0
same,"Plant response rating, Foxtail, Giant",giant foxtail; [15],80
same,"Foxtail, Giant plant response rating",giant foxtail; [16],30
same,"Plant response rating (0 to 100 scale), Rice","rice [4]; 125 g ai/ha, 0 is no effect, 100 is complete control",30
same,"Plant response rating, Rice","rice [4]; 500 g ai/ha, visual rating, 0 = no effect, 100 = complete control",40
same,Barnyardgrass plant response rating,"barnyardgrass [5]; 62 g ai/ha, scale 0 to 100 (0 no effect, 100 complete control)",0
same,Barnyardgrass plant response rating,barnyardgrass [5]; [11],10
same,Barnyardgrass plant response rating,barnyardgrass [5]; [12],40
same,"Plant response rating, Barnyardgrass",barnyardgrass [5]; [13],65
same,"Plant response rating (0 to 100 scale), Morningglory",morningglory; [17],0
same,Morningglory plant response rating,morningglory; [14],0
same,"Plant response rating, Morningglory",morningglory; [15],0
same,Morningglory plant response rating,morningglory; [16],10
same,"Sedge, Umbrella plant response rating","[6]; 62 g ai/ha, scale 0 to 100",0
same,"Sedge, Umbrella plant response rating",[6]; [11],20
same,"Sedge, Umbrella plant response rating",[6]; [12],25
same,"Plant response rating, Sedge, Umbrella",[6]; [13],65
same,"Plant response rating (0 to 100 scale), Surinam Grass",Surinam grass; [17],40
same,Surinam Grass plant response rating,Surinam grass; [14],10
same,"Plant response rating, Surinam Grass",Surinam grass; [15],60
same,Surinam Grass plant response rating,Surinam grass; [16],20
same,"Plant response rating (0 to 100 scale), Pigweed",pigweed; [17],40
same,Pigweed plant response rating,pigweed; [14],10
same,"Plant response rating, Pigweed",pigweed; [15],50
same,Pigweed plant response rating,pigweed; [16],50
same,"Plant response rating (0 to 100 scale), Cocklebur",cocklebur; [17],0
same,Cocklebur plant response rating,cocklebur; [14],10
same,"Plant response rating, Cocklebur",cocklebur; [15],0
same,Cocklebur plant response rating,cocklebur; [16],30
same,"Oat, Wild plant response rating",wild oat; [14],10
same,"Oat, Wild plant response rating",wild oat; [16],30
same,Rice plant response rating,"rice [7]; 62 g ai/ha, scale 0 to 100",0
same,Rice plant response rating,rice [7]; [11],15
same,Rice plant response rating,rice [7]; [12],50
same,"Plant response rating, Rice",rice [7]; [13],65
same,"Plant response rating (0 to 100 scale), Corn",corn; [17],20
same,Corn plant response rating,corn; [14],0
same,"Plant response rating, Corn",corn; [15],40
same,Corn plant response rating,corn; [16],0
same,Wheat plant response rating,wheat; [14],20
same,Wheat plant response rating,wheat; [16],20
same,Barnyardgrass plant response rating,barnyardgrass [8],80
same,"Sedge, Umbrella plant response rating",[9],90
same,Ducksalad plant response rating,ducksalad [10],90
same,"Plant response rating (0 to 100 scale), Velvetleaf",velvetleaf; [17],20
same,Velvetleaf plant response rating,velvetleaf; [14],10
same,"Plant response rating, Velvetleaf",velvetleaf; [15],80
same,Velvetleaf plant response rating,velvetleaf; [16],20
same,"Plant response rating (0 to 100 scale), Crabgrass, Large",large crabgrass; [17],60
same,"Crabgrass, Large plant response rating",large crabgrass; [14],10
same,"Plant response rating, Crabgrass, Large",large crabgrass; [15],80
same,"Crabgrass, Large plant response rating",large crabgrass; [16],10
